Assay results from patent publication EP2253629A1, “Polymorphs of racemic sunitinib malate, compositions containing them and preparation thereof” (Teva Pharmaceutical Industries Ltd., priority 2007, dated 2009).

Test: solubility in water
Assay type: physicochemical

- solubility: < 1000 µg/mL
SMILES: CCN(CC)CCNC(=O)c1c(C)[nH]c(/C=C2\C(=O)Nc3ccc(F)cc32)c1C [sunitinib base form VIII, N-[2-(diethylamino)ethyl]-5-[(Z)-(5-fluoro-1,2-dihydro-2-oxo-3H-indol-3-ylidine)methyl]-2,4-dimethyl-1 H-pyrrole-3-carboxamide]
